Structures can show the parent of a compound that is named as a salt.
What was measured:
[1] = tested on: OE33R radio-resistant oesophageal adenocarcinoma cells; test: Quantification of glycolysis (ECAR, Seahorse), OE33R; type: cell-based, human; settings: 10 μM, 24 hours
Method: OE33P radio-sensitive and OE33R radio-resistant oesophageal adenocarcinoma cells were used to test the effects of compounds 11B HCl, 11B CC11 HCl, 11B CC16 HCl, 11B 471 and 11B 268 on glycolysis. Cells were maintained in RPMI media supplemented with 10% foetal calf serum, penicillin (100 U/ml) and streptomycin (100 μg/ml). A total of 11,000 or 13,000 cells, in 100 μl media, were seeded per well in 24 well plates and left to incubate for 24 hours, with an additional 150 μl media added after 5 hours. The media was replaced with solutions containing 10 μM of 11B HCl, […], 11B CC16 HCl, 11B 471, 11B 268 or fresh media as a control. Each drug had 6 replicates. After 24 hours of treatment, media was replaced with modified DMEM supplemented with 0.5 mM glucose. Rates of glycolysis were determined using Seahorse Biosciences metabolism technology. The media was disposed and the cells washed with PBS. The cells were fixed with 1% glutaraldehyde for 15 minutes and then stained with crystal violet for 30 minutes. The plates were blotted and dried overnight. The cells were resuspended with 1% TritonX-100 and shaken for 15 minutes. The absorbance was read on a spectrophotometer at 590 nm. Rates of glycolysis were then normalised to cell number.
OE33P radiosensitive oesophageal adenocarcinoma cells were used to test the effects of the compound 11B_ZHCl on glycolysis. Cells were maintained in RPMI media supplemented with 10% foetal calf serum, penicillin (100 U/ml) and streptomycin (100 μg/ml). A total of 11,000 cells, in 100 μl media, were seeded per well in 24 well plates and left to incubate for 24 hours, with an additional 150 μl media added after 5 hours. The media was replaced with solutions containing 10 μM of 11B_ZHCl or fresh media as a control. Each treatment had 6 replicates. After 24 hours of treatment, media was replaced with modified DMEM supplemented with 0.5 mM glucose. Rates of glycolysis were determined using Seahorse Biosciences metabolism technology. […] The absorbance was read on a spectrophotometer at 590 nm. […] No changes in ECAR were detected in OE33R treated cells.

retinal blood vessels = test: Ocular neovascularisation in mouse oxygen-induced retinopathy model; type: in vivo, C57BL/6J mice; settings: 5 μM injected intravitreally on P13, culled P17; compared to P17 control
Method: Postnatal day (P) 7 C57BL/6J mice together with their dams were treated in 75% oxygen (hyperoxia) for 5 days causing regression of retinal blood vessels. They were returned to normoxia (relative hypoxia) on P12, causing rapid regrowth of the retinal blood vessels, 5 μM 11B_CC11_HCl, 5 μM 11B_CC16_HCl, 5 μM pazopanib or 2.5 mg/ml avastin was injected intravitreally on P13. The mice were culled on P17, eyes fixed in 4% paraformaldehyde at 4° C. overnight, flat mounted and retinas stained for isolectin (red, stains vasculature).

CysLT1 receptor = molecular target: T1, CysLT1 receptor (Homo sapiens, UniProt Q9Y271); test: CysLT1 calcium mobilisation assay in CHO cells; type: cell-based; settings: 0.1 nM LTD4, CHO cells expressing CysLT1, read-out: inhibition of calcium mobilisation (CysLT1 antagonism)
T1 construct: host or cells: CHO cells
T1 sequence (Q9Y271 1-337): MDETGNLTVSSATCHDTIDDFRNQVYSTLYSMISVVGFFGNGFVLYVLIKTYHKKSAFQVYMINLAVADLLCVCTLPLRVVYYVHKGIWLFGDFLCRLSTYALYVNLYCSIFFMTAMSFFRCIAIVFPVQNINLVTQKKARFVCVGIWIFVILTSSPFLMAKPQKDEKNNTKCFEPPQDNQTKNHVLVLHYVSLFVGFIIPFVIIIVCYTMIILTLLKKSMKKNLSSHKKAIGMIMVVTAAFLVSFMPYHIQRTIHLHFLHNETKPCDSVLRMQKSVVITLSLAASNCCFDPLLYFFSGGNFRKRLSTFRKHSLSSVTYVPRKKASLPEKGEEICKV
Method: FIG. 15 tables the percentage inhibition by compounds 11B_CC11_HCl and 11B_CC16_HCl on the cysteinyl leukotriene pathway in in vitro and ex vivo assays. […] For in vitro cysteinyl leukotriene cell-based assays 11B_CC11_HCl and 11B_CC16_HCl, were tested at 30 μM concentration in duplicate, in a single experiment for their ability to inhibit the calcium mobilisation response of the CysLT1 receptor to 0.1 nM leukotriene D4 in CHO cells over-expressing the CysLT1 receptor or the calcium mobilisation response of the CysLT2 receptor to 30 nM of leukotriene C4 in HEK 293 cells over expressing the CysLT2 receptor.
Target profiling using Cerep and Eurofins/Panlabs profiling screens was undertaken using 11B_CC11_HCl and 11B_CC16_HCl in order to investigate the mechanism of action. […] Test substance (30 LM)-induced isometrically recorded contraction by 50 percent or more within 5 min, relative to control 3 nM leukotriene D4 response, indicates possible cysteinyl-leukotriene LT1 receptor agonist activity. […] To measure inhibition of cysteinyl leukotriene 1 (CysLT1 [LTD4]) and cysteinyl leukotriene 2 (CysLT2 [LTC4]) receptor activity, calcium mobilisation was measured using Fluor-3-loaded CHO cells (for cysLT1 assays) or HEK-293 cells (for CysLT2 assays) which stably express either the CysLT1 or CysLT2 receptors. […]

SMILES | extracellular acidification rate (ECAR), a measure of glycolysis [1] | inhibition of neovascularisation (avascular region as percentage of whole retina) (retinal blood vessels) | inhibition at 30 µM (CysLT1 receptor) [%]
Oc1ccccc1/C=C/c1ccc2ccccc2n1 [11B HCl] | significantly reduce | – | –
C/C(=C\c1ccccc1O)c1ccc2ccccc2n1.Cl [Compound 11B_CC11_HCl, (E)-2-(2-Quinolin-2-yl-propenyl)-phenol HCl salt] | – | inhibit neovascularisation | 137
Cl.Oc1ccccc1/C=C\c1ccc2ccccc2n1 [Compound 11B_Z_HCl, (Z)-2-(2-(Quinolin-2-yl)vinyl) phenol HCl salt] | No changes | – | –

Reference: patent US9815788B2, “Anti-angiogenic compounds” (University College Dublin National University of Ireland, …, priority 2012, dated 2017)
